Experimental data reported in US11753409B2, “Crystalline salts of a B-RAF kinase inhibitor” (Xynomic Pharmaceuticals, Inc., priority 2017, dated 2023).
Entries after “also recorded” stand apart in the source; their conditions may differ.

What was measured:
Assay type in all cases: physicochemical
[1] = DVS isotherm of Form A (hygroscopicity)
Method: DVS was measured via a SMS (Surface Measurement Systems) DVS Intrinsic. The relative humidity at 25° C. was calibrated against the deliquescence point of LiCl, Mg(NO3)2 and KCl.
To investigate the solid form stability as a function of humidity, a DVS isotherm plot of Form A of N-(3-(5-((1-ethylpiperidin-4-yl)(methyl)amino)-3-(pyrimidin-5-yl)-1H-pyrrolo[3,2-b]pyridin-1-yl)-2,4-difluorophenyl)propane-1-sulfonamide monosuccinate salt was collected at 25° C. between 0 and 95% RH.

[2] = Heating to 170° C. and cooling to room temperature; conditions: heated to 170° C., cooled to room temperature
Method: Further XRPD, TGA, DSC and ^1H NMR analyses were performed after heating succinate Form A to 170° C. and then cooling to room temperature.

[3] = Solid state stability evaluation
Method: Samples of Form A of N-(3-(5-((1-ethylpiperidin-4-yl)(methyl)amino)-3-(pyrimidin-5-yl)-1H-pyrrolo[3,2-b]pyridin-1-yl)-2,4-difluorophenyl)propane-1-sulfonamide monosuccinate salt were stored under at 80° C. for one day, at 25° C. under 60% RH and at 40° C. under 75% RH for one week.

[4] = Equilibrium solubility of Form A in water
Method: Equilibrium solubility of Form A in water was measured at room temperature. The solid was suspended into H2O (˜800 rpm) at rt. After 24 h., the suspension was centrifuged (10000 rpm, 5 min) followed by filtration (0.45 μm PTFE membrane). The supernatant (first few drops were discarded) was analyzed by HPLC and the pH was measured. The residual solid was analyzed by XRPD.

[5] = 25 ° C., 60% RH/1 week (second condition column)
[6] = 25 ° C., 60% RH/1 week (third condition column)

Q: For `CCCS(=O)(=O)Nc1ccc(F)c(-n2cc(-c3cncnc3)c3nc(N(C)C4CCN(CC)CC4)ccc32)c1F.O=C(O)CCC(=O)O` [Monosuccinate Salt, N-(3-(5-((1-Ethylpiperidin-4-yl)(methyl)amino)-3-(pyrimidin-5-yl)-1H-pyrrolo[3,2-b]pyridin-1-yl)-2,4-difluorophenyl)propane-1-sulfonamide monosuccinate salt], which “Water uptake (DVS)” value ([1]; 25° C./80% RH) is on record?
A: 0.14%

Q: And the Hygroscopicity ([1]; DVS at 25° C., 0 to 95% RH, listed as Form A, monosuccinate salt)?
A: non-hygroscopic; also recorded: low hygroscopicity

Q: And the “Form change after DVS testing (XRPD)” value ([1]; listed as Form A, monosuccinate salt)?
A: did not result in any form change; also recorded: does not change form

Q: What about the “Crystalline form after heating (XRPD)” value [2] of the same compound?
A: still succinate Type A

Q: And the “Form Change” value [3, 5]?
A: No

Q: What about the “Purity (% of Initial)” value [3, 5] of the same compound?
A: 100.0 % of Initial

Q: What about the “Form Change” value [3, 6] of the same compound?
A: No

Q: And the “Purity (% of Initial)” value [3, 6]?
A: 100.1 % of Initial

Q: And the “Form Change” value ([3]; 80% C/1 day)?
A: No

Q: What about the “Purity (% of Initial)” value ([3]; 80% C/1 day) of the same compound?
A: 99.9 % of Initial

Q: And the “Solid state stability, form change or HPLC purity decrease” value ([3]; any of the storage conditions)?
A: No form change or HPLC purity decrease were observed

Q: And the “Form change during equilibrium solubility testing (XRPD)” value ([4]; rt, 24 h, listed as Form A, monosuccinate salt)?
A: no form change; also recorded: does not change

Q: What about the solubility thermodynamic at 24 h ([4]; thermodynamic from solid, room temperature, HPLC) of the same compound?
A: 14.3 mg/mL
